Results: ChEMBL document CHEMBL3769343, “Spiromastilactones: A new class of influenza virus inhibitors from deep-sea fungus” (Eur J Med Chem, 2016)
The source made the active and inactive calls. The calls are words filed in the database; no cut-off is given here.

Columns and labels:
[1] = tested on: Influenza A virus (A/WSN/1933(H1N1)); experiment: Binding affinity to Influenza A virus A/WSN/33 (H1N1) HA1 protein assessed as decrease in protein affinity to sialic acid receptor at 10 uM by surface plasmon resonance assay
[2] = tested on: Influenza A virus (A/WSN/1933(H1N1)); experiment: Binding affinity to Influenza A virus A/WSN/33 (H1N1) HA1 protein assessed as decrease in protein affinity to sialic acid receptor at 20 uM by surface plasmon resonance assay relative to control
[3] = Binding affinity to Influenza A virus A/WSN/33 (H1N1) HA1 protein assessed as decrease in protein affinity to sialic acid receptor by measuring dissociation constant by surface plasmon resonance assay (reference value: 0.001473/Ms); design: species or system Influenza A virus (A/WSN/1933(H1N1))
[4] = tested on: Influenza A virus (A/WSN/1933(H1N1)); experiment: Binding affinity to Influenza A virus A/WSN/33 (H1N1) HA1 protein assessed as decrease in protein affinity to sialic acid receptor by measuring association constant by surface plasmon resonance assay (reference value: 20810/s)
[5] = Binding affinity to Influenza A virus A/WSN/33 (H1N1) HA1 protein assessed as decrease in protein affinity to sialic acid receptor by surface plasmon resonance assay (reference value: 70 nM); design: species or system Influenza A virus (A/WSN/1933(H1N1))
[6] = tested on: Influenza A virus (A/WSN/1933(H1N1)); experiment: Binding affinity to Influenza A virus A/WSN/33 (H1N1) HA1 protein assessed as decrease in protein affinity to sialic acid receptor at 1.25 uM by surface plasmon resonance assay
[7] = tested on: Influenza A virus (A/WSN/1933(H1N1)); experiment: Binding affinity to Influenza A virus A/WSN/33 (H1N1) HA1 protein assessed as decrease in protein affinity to sialic acid receptor at 5 uM by surface plasmon resonance assay
[8] = tested on: Influenza A virus (A/WSN/1933(H1N1)); experiment: Binding affinity to Influenza A virus A/WSN/33 (H1N1) HA1 protein assessed as decrease in protein affinity to sialic acid receptor at 20 uM by surface plasmon resonance assay
[9] = tested on: Influenza A virus (A/WSN/1933(H1N1)); experiment: Binding affinity to Influenza A virus A/WSN/33 (H1N1) HA1 protein assessed as decrease in protein affinity to sialic acid receptor at 2.5 uM by surface plasmon resonance assay
[10] = tested on: Influenza A virus (A/WSN/1933(H1N1)); experiment: Binding affinity to Influenza A virus A/WSN/33 (H1N1) HA1 protein assessed as decrease in protein affinity to sialic acid receptor at 0.625 uM by surface plasmon resonance assay
Influenza A virus [11] = experiment: Antiviral activity against Influenza A virus A/WSN/33 (H1N1) assessed as inhibition of viral infection in dog MDCK cells at 50 uM after 36 hrs; type: functional; conditions: A/WSN/1933(H1N1)
Influenza A virus [12] = experiment: Antiviral activity against Influenza A virus A/WSN/33 (H1N1) infected in dog MDCK cells assessed as reduction in nucleoprotein level at 100 uM measured at 8 to 10 hrs by Western blot analysis relative to control; type: functional, organism-based; conditions: A/WSN/1933(H1N1)
Influenza B virus = experiment: Antiviral activity against influenza B virus B/SZ/155 infected in dog MDCK cells assessed as inhibition of virus induced cytopathic effect after 40 hrs by Cell-Titer-Glo assay; type: functional, organism-based; conditions: B/SZ/155, MDCK
[13] = Binding affinity to Influenza A virus H3N2 HA3 protein by surface plasmon resonance assay
A549 = experiment: Binding affinity to Influenza A virus A/WSN/33 (H1N1) HA1 protein assessed as inhibition of virus attachment to human A549 cells at 10 to 50 uM after 1 hr by DAPI staining based immunofluorescence microscopic analysis; type: cell-based; conditions: Influenza A virus (A/WSN/1933(H1N1))
[14] = Cytotoxicity against MDCK cells after 40 hrs by Celltiter-Glo assay; type: cell-based, Canis lupus familiaris; conditions: dog
HEK-293T [15] = experiment: Inhibition of Influenza A virus RNP infected in HEK293T cells assessed as decrease in ratio of Fluc to Rluc; type: cell-based; conditions: Influenza A virus (A/WSN/1933(H1N1))
Influenza A virus [16] = experiment: Antiviral activity against Influenza A virus A/WSN/33 (H1N1) infected in dog MDCK cells assessed as inhibition of viral nucleoprotein synthesis after 6 hrs by DAPI staining based immunofluorescence microscopy; type: functional, organism-based; conditions: A/WSN/1933(H1N1)
[17] = Inhibition of Influenza A virus A/WSN/33 (H1N1) HA1 protein by surface plasmon resonance assay; design: species or system Influenza A virus (A/WSN/1933(H1N1))
Influenza A virus [18] = experiment: Antiviral activity against Influenza A virus A/WSN/33 (H1N1) infected in dog MDCK cells assessed as reduction in nucleoprotein level at 100 uM measured over 2 hrs by Western blot analysis relative to control; type: functional, organism-based; conditions: A/WSN/1933(H1N1)
Influenza A virus [19] = experiment: Antiviral activity against Influenza A virus A/WSN/33 (H1N1) assessed as inhibition of viral infection in dog MDCK cells at 50 uM pretreated with virus for 30 mins followed by host cell inoculation for 1 hr measured after 36 hrs; type: functional; conditions: A/WSN/1933(H1N1)
Influenza A virus [20] = experiment: Antiviral activity against Influenza A virus A/WSN/33 (H1N1) infected in human A549 cells assessed as inhibition of (-)vRNA production after 7 hrs by qRT-PCR analysis; type: functional, organism-based; conditions: A/WSN/1933(H1N1)
HeLa = experiment: Binding affinity to Influenza A virus A/WSN/33 (H1N1) HA2 protein assessed as polykaryon formation in human HeLa cells preincubated with test compound for 15 mins followed by further test compound addition at pH 4.9 for 15 mins by crystal violet staining-based microscopic analysis; type: cell-based; conditions: Influenza A virus (A/WSN/1933(H1N1))
Influenza A virus [21] = experiment: Antiviral activity against Influenza A virus A/WSN/33 (H1N1) assessed as inhibition of viral infection in dog MDCK cells at 50 uM pretreated with cells for 30 mins followed by exposure to virus for 1 hr measured after 36 hrs; type: functional; conditions: A/WSN/1933(H1N1)
[22] = tested on: Influenza A virus (A/WSN/1933(H1N1)); experiment: Binding affinity to Influenza A virus A/WSN/33 (H1N1) HA1 protein by surface plasmon resonance assay
[23] = tested on: Influenza A virus (A/WSN/1933(H1N1)); experiment: Inhibition of Influenza A virus A/WSN/33 (H1N1) HA1 protein assessed as inhibition of virus induced aggregation of chicken erythrocytes after 30 mins
Influenza A virus [24] = experiment: Antiviral activity against Influenza A virus A/WSN/33 (H1N1) infected in human A549 cells assessed as inhibition of (+)cRNA production after 7 hrs by qRT-PCR analysis; type: functional, organism-based; conditions: A/WSN/1933(H1N1)
Influenza A virus [25] = experiment: Antiviral activity against Influenza A virus A/WSN/33 (H1N1) infected in dog MDCK cells assessed as reduction in nucleoprotein level at 100 uM measured over 10 hrs by Western blot analysis relative to control; type: functional, organism-based; conditions: A/WSN/1933(H1N1)
[26] = Binding affinity to influenza B virus HA1 protein by surface plasmon resonance assay
Influenza A virus [27] = experiment: Antiviral activity against Influenza A virus A/WSN/33 (H1N1) infected in dog MDCK cells assessed as reduction in nucleoprotein level at 100 uM measured at 5 to 8 hrs by Western blot analysis relative to control; type: functional, organism-based; conditions: A/WSN/1933(H1N1)
HEK-293T [28] = experiment: Effect on renilla luciferase expressed in HEK293T cells at 6.25 to 50 uM after 48 hrs; type: cell-based
Influenza A virus [29] = experiment: Antiviral activity against Influenza A virus A/WSN/33 (H1N1) infected in human A549 cells assessed as inhibition of mRNA of M1 segment production after 7 hrs by qRT-PCR analysis; type: functional, organism-based; conditions: A/WSN/1933(H1N1)
Influenza A virus [30] = experiment: Antiviral activity against Influenza A virus A/WSN/33 (H1N1) infected in dog MDCK cells assessed as reduction in nucleoprotein level at 100 uM measured at 2 to 5 hrs by Western blot analysis relative to control; type: functional, organism-based; conditions: A/WSN/1933(H1N1)
Influenza A virus [31] = experiment: Antiviral activity against Influenza A virus A/WSN/1933 (H1N1) infected in MDCK cells assessed as protection against virus induced cytopathic effect after 40 hrs by Celltiter-Glo assay; type: functional, organism-based
[32] = tested on: Influenza A virus (A/WSN/1933(H1N1)); experiment: Binding affinity to Influenza A virus A/WSN/33 (H1N1) HA1 protein assessed as decrease in protein affinity to sialic acid receptor at 40 uM by surface plasmon resonance assay relative to control

COc1cc(/C=C/C(=O)CC(=O)/C=C/c2ccc(O)c(OC)c2)ccc1O [CURCUMIN]
Activity [1]: 36.4 RU
fold change (FC) [2]: 8
Kd [3]: 0.001351 M⁻¹ s⁻¹
Ka [4]: 2660 s⁻¹
Kd [5]: 0.507 µM
Activity [6]: 2.7 RU
Activity [7]: 16.1 RU
Activity [8]: 78.8 RU
Activity [9]: 6.8 RU
Activity [10]: 0.8 RU

CCCc1c(Cl)c(O)cc(OC)c1Oc1c(Cl)c(O)c(Cl)c2c1C(=O)O[C@@H]2CC
Activity [1]: 44.8 RU
inhibition at 50 µM (Influenza A virus [11]): 90%
Activity (Influenza A virus [12]): inactive
EC50 (Influenza B virus): 32 µM
Kd [13]: 18 µM
inhibition (A549): Active
CC50 at 40 h [14]: > 100 µM
inhibition (HEK-293T [15]): Active
inhibition (Influenza A virus [16]): Dose-dependent effect
IC50 [17]: 6 µM
Activity (Influenza A virus [18]): Active
Kd [3]: 0.00187 M⁻¹ s⁻¹
inhibition at 50 µM (Influenza A virus [19]): 40%
inhibition (Influenza A virus [20]): Dose-dependent effect
Activity (HeLa): inactive
inhibition at 50 µM (Influenza A virus [21]): 25%
Ka [4]: 3420 s⁻¹
Kd [5]: 0.547 µM
Ka [22]: 2.3 ×10⁴ /Ms
Activity [6]: 5.4 RU
inhibition [23]: Dose-dependent effect
Activity [7]: 21 RU
inhibition (Influenza A virus [24]): Dose-dependent effect
Activity [8]: 98.2 RU
Activity [9]: 10.3 RU
Activity (Influenza A virus [25]): Active
Kd [26]: 14 µM
Activity (Influenza A virus [27]): Active
Activity (HEK-293T [28]): inactive
Activity [10]: 3.3 RU
inhibition (Influenza A virus [29]): Dose-dependent effect
Activity (Influenza A virus [30]): Active
IC50 (Influenza A virus [31]): 6 µM
fold change (FC) [32]: 8

CCCc1c(Cl)c(OC)cc(O)c1Oc1c(Cl)c(O)c(Cl)c2c1C(=O)O[C@@H]2CC
CC50 at 40 h [14]: > 50 µM
IC50 (Influenza A virus [31]): > 50 µM

CCCc1c(Cl)c(O)c(Cl)c(OC)c1Oc1c(Cl)c(O)c(Cl)c2c1C(=O)O[C@@H]2CC
CC50 at 40 h [14]: > 100 µM
IC50 (Influenza A virus [31]): 22.6 µM

CC[C@H]1OC(=O)c2c(O)c(Cl)c(O)c(Cl)c21
CC50 at 40 h [14]: > 100 µM
IC50 (Influenza A virus [31]): > 100 µM

CCCc1cc(O)cc(O)c1C(=O)O
CC50 at 40 h [14]: > 100 µM
IC50 (Influenza A virus [31]): > 100 µM

NC(=O)c1ncn([C@@H]2O[C@H](CO)[C@@H](O)[C@H]2O)n1 [RIBAVIRIN]
EC50 (Influenza B virus): 4.28 µM
CC50 at 40 h [14]: > 200 µM

CCCc1c(Cl)c(O)c(Cl)c(O)c1Oc1c(Cl)c(O)c(Cl)c2c1C(=O)O[C@@H]2CC
CC50 at 40 h [14]: > 50 µM
IC50 (Influenza A virus [31]): 38.2 µM

CCCc1c(Cl)c(OC)cc(OC)c1Oc1c(Cl)c(O)c(Cl)c2c1C(=O)O[C@@H]2CC
CC50 at 40 h [14]: > 50 µM
IC50 (Influenza A virus [31]): 16.2 µM

CCOC(=O)c1c(CSc2ccccc2)n(C)c2cc(Br)c(O)c(CN(C)C)c12 [UMIFENOVIR]
Activity [1]: 48.7 RU
Kd [3]: 0.0009582 M⁻¹ s⁻¹
Ka [4]: 11800 s⁻¹
Kd [5]: 0.081 µM
Activity [6]: 1.2 RU
Activity [7]: 20.7 RU
Activity [8]: 102 RU
Activity [9]: 7.5 RU
Activity [10]: -1.8 RU
